Laboratory results from ChEMBL document CHEMBL5236554 (J Med Chem, 2021).
Values belong to the compound of their own block, whether it stands above or below them. The source made the active and inactive calls. The calls are words filed in the database; no cut-off is given here. Square brackets hold non-standard residues; d marks the D form. Peptide text beside a SMILES is read from it. * marks the point of attachment. Boc = CC(C)(C)OC(=O)*

Columns and labels:
[1] = Metabolic stability in mouse plasma assessed as half life measured upto 240 mins by LC-MS/MS analysis; type: ADME, cell-free
[2] = Metabolic stability in mouse brain homogenate assessed as half life measured upto 240 mins by LC-MS/MS analysis; type: ADME, tissue-based; settings: 4 h
[3] = Permeability coefficient across apical to basolateral side in mouse BEND3 cells co-cultured with mouse primary astrocytes incubated for 120 mins by LC-MS/MS analysis; type: ADME, cell-based; settings: bend3, 2 h
[4] = target: Neurolysin, mitochondrial (Rattus norvegicus, UniProt P42676); test: Activation of recombinant rat Neurolysin using QFS as substrate incubated for 10 mins
Sequence of Neurolysin, mitochondrial (P42676 whole entry): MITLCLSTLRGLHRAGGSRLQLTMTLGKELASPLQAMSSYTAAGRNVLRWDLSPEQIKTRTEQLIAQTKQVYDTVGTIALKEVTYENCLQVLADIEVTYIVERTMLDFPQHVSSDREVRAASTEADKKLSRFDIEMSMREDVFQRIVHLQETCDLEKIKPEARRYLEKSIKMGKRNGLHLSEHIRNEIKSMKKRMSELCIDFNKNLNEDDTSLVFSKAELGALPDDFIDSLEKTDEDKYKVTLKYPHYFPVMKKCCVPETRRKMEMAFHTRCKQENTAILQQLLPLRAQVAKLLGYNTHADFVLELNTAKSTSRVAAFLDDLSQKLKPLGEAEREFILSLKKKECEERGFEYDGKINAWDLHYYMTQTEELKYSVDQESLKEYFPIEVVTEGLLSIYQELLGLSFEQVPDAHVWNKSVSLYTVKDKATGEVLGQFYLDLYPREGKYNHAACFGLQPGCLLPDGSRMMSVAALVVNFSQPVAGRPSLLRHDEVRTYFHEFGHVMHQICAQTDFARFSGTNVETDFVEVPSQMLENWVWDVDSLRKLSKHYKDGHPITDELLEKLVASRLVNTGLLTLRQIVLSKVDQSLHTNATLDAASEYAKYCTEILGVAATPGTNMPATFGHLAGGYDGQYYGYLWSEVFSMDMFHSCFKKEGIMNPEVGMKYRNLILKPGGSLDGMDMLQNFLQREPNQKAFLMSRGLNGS

[5] = target: Thimet oligopeptidase (Homo sapiens) (UniProt P52888); test: Inhibition of recombinant human THOP catalytic activity using Mca-Pro-Leu-Gly-Pro-D-Lys(DNP)-OH as substrate
Sequence of Thimet oligopeptidase (Homo sapiens) (P52888 whole entry): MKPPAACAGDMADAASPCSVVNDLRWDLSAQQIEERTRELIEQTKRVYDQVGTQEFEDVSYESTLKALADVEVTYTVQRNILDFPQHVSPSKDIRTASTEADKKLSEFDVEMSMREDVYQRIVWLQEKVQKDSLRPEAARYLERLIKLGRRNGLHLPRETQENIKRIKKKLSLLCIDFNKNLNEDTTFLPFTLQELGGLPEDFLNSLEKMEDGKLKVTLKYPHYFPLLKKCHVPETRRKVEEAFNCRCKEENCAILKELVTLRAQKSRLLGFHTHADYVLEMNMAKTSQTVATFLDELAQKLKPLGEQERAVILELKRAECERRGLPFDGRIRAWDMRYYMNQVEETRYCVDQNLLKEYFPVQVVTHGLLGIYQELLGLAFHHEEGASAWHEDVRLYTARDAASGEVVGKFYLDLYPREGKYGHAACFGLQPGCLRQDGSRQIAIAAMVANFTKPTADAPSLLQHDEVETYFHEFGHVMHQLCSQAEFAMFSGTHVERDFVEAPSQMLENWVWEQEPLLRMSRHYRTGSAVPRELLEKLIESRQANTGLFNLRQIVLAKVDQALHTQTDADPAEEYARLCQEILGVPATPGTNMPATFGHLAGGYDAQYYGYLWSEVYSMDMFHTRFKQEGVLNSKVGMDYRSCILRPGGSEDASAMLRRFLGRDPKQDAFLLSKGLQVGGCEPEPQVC

[6] = target: Neprilysin (Homo sapiens) (UniProt P08473); test: Inhibition of recombinant human NEP catalytic activity using Mca-Arg-Pro-Pro-Gly-Phe-Ser-Ala-Phe-Lys(Dnp)-OH as substrate
Sequence of Neprilysin (Homo sapiens) (P08473 whole entry): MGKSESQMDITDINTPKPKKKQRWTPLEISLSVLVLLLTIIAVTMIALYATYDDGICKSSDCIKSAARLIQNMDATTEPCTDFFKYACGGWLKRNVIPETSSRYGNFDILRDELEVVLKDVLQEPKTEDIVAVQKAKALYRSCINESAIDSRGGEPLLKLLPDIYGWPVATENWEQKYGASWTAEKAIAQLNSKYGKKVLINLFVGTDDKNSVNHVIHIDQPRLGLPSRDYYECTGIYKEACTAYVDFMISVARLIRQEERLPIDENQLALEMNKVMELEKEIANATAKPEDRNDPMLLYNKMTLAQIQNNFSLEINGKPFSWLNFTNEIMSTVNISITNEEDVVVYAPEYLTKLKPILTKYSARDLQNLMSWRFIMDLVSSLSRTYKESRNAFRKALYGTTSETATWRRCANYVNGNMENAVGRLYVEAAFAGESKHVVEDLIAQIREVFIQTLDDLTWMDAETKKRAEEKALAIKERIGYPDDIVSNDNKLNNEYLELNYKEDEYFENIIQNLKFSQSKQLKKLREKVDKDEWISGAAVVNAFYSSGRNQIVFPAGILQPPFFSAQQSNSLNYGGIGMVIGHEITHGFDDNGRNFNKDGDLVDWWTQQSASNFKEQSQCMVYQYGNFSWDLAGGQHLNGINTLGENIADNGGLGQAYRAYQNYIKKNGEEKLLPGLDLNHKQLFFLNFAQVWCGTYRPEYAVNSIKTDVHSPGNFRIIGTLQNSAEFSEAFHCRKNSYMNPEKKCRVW

[7] = target: Angiotensin-converting enzyme 2 (Homo sapiens) (UniProt Q9BYF1); test: Inhibition of recombinant human ACE2 catalytic activity at 300 uM using Mca-Ala-Pro-Lys-(Dnp)-OH as substrate
Sequence of Angiotensin-converting enzyme 2 (Homo sapiens) (Q9BYF1 18-805 limits assumed): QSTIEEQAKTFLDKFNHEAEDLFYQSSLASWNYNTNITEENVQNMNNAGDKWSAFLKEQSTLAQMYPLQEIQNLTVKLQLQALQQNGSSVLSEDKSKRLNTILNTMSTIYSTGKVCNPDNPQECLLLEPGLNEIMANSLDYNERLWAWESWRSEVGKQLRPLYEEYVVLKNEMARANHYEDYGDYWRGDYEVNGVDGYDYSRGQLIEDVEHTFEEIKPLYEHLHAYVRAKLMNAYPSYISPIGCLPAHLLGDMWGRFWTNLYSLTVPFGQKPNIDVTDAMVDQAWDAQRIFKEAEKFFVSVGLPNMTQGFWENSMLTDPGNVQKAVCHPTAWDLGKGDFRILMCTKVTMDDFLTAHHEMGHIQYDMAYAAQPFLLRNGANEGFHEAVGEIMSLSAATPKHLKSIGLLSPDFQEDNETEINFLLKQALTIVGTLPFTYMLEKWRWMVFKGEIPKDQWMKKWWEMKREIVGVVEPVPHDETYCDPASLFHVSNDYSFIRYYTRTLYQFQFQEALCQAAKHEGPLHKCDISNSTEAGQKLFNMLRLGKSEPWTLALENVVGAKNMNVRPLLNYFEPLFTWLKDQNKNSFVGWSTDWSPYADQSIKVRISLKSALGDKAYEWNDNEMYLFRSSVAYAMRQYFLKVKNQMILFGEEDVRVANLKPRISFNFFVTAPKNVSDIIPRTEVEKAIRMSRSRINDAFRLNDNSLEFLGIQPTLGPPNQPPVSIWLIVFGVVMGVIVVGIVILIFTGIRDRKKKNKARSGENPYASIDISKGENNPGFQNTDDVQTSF

[8] = target: Angiotensin-converting enzyme (Homo sapiens) (UniProt P12821); test: Inhibition of recombinant human ACE catalytic activity measured up to 150 uM
Sequence of Angiotensin-converting enzyme (Homo sapiens) (P12821 whole entry): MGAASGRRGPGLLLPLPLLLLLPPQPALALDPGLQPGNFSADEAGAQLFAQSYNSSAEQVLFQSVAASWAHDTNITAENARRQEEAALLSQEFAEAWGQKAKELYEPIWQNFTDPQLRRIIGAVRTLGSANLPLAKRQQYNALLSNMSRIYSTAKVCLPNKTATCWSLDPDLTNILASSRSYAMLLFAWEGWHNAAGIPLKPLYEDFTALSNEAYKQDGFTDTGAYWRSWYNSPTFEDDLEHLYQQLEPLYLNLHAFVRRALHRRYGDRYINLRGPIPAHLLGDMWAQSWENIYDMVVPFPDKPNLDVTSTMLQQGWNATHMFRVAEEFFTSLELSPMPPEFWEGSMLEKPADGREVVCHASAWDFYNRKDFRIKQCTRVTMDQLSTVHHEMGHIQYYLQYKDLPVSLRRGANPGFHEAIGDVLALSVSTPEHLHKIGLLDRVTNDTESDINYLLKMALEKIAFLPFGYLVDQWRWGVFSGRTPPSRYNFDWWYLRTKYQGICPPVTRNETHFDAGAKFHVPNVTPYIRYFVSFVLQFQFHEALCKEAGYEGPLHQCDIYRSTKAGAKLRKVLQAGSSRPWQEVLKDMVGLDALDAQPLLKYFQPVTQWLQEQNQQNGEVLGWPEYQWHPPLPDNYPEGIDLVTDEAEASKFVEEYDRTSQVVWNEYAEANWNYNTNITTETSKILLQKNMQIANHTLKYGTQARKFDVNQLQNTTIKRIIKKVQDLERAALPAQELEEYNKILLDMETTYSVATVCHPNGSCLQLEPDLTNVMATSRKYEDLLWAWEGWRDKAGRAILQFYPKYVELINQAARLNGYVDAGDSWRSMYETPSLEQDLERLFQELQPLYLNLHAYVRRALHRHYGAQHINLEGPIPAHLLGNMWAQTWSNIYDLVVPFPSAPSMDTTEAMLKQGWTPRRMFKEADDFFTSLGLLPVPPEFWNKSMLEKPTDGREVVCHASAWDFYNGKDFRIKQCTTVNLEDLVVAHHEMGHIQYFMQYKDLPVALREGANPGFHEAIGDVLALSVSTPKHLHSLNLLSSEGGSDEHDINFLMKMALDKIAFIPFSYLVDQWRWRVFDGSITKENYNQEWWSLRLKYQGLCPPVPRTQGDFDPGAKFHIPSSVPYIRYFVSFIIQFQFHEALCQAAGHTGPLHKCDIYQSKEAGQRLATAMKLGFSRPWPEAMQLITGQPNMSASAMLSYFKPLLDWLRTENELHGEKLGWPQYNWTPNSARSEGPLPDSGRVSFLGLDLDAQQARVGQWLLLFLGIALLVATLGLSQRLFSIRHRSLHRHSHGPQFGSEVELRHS

- t1/2 ([1]; 4 h): 34.19 min
- t1/2 [2]: 1.03 min
- Kp [3]: 0.21 10^-3cm/min
Compound: N[C@@H](Cc1c[nH]cn1)C(=O)N[C@@H](Cc1ccc(O)cc1)C(=O)O (H-His-Tyr-OH)

Compound: N[C@@H](Cc1c[nH]cn1)C(=O)N[C@@H](Cc1ccccc1)C(=O)O (H-His-Phe-OH)
- EC50 ([4]; read-out: EC50): 74.5 µM

Compound: O=C(CCc1c[nH]cn1)NCCc1cc2ccccc2[nH]1
- EC50 [4]: Not Active

- EC50 [4]: Not Active
Compound: N[C@@H](Cc1ccc(O)cc1)C(=O)N[C@H](Cc1c[nH]cn1)C(=O)O

Compound: N[C@@H](Cc1c[nH]cn1)C(=O)NCCc1ccc(F)cc1
- EC50 ([4]; read-out: EC50): 11.6 µM

- EC50 [4]: Not Active
Compound: CC(C)(C)OC(=O)N[C@@H](Cc1c[nH]cn1)C(=O)NCCc1c[nH]c2ccccc12

- EC50 [4]: Not Active
Compound: CC(C)(C)OC(=O)N[C@@H](Cc1ccc(O)cc1)C(=O)N[C@H](Cc1ccccc1)C(=O)O (Boc-Tyr-[dF]-OH)

Compound: NC(Cc1c[nH]cn1)C(=O)NCc1cccc2cccnc12 (racemic)
- EC50 ([4]; read-out: EC50): 5.8 µM

Compound: N[C@@H](Cc1c[nH]cn1)C(=O)NCc1cccc2ccccc12
- half-life [1]: > 1000 min
- t1/2 [2]: 80.3 min
- Kp [3]: 1.09 10^-3cm/min
- inhibition [5]: inactive
- inhibition [6]: inactive
- inhibition [7]: inactive
- inhibition [8]: inactive
